In ChEMBL document CHEMBL4837225, “Water-soluble derivatives of evodiamine: Discovery of evodiamine-10-phosphate as an orally active antitumor lead compound” (Eur J Med Chem, 2021):
pIC50: −log10 of the molar value. Activity calls are given as the source filed them. No cut-off for these calls is given here.

Columns and labels:
[1] = Toxicity in BALB/c nude mouse xenografted with human A549 cells assessed as effect on body weight at 150 mg/kg, po bid for 14 days; format: organism-based; conditions: in vivo, 336 h, time 14 day
HCT-116 [2] = experiment: Induction of apoptosis in human HCT-116 cells assessed as downregulation of Bcl-2 expression at 0.2 to 5 uM measured after 24 hrs by Western blot analysis; format: functional, cell-based; conditions: dose 0.2-5 µM
HCT-116 [3] = experiment: Induction of apoptosis in human HCT-116 cells assessed as late apoptotic cells level at 0.5 uM incubated for 48 hrs by annexin V-FITC/propidium iodide staining based flow cytometry (reference value: 1.87%); format: functional
HCT-116 [4] = experiment: Antitumor activity against human HCT-116 cells xenografted in iv dosed BALB/c nude mouse assessed as inhibition of tumor growth measured by caliper relative to control; format: functional
HCT-116 [5] = experiment: Antitumor activity against human HCT-116 cells xenografted in BALB/c nude mouse assessed as inhibition of tumor growth at 150 mg/kg, po BID measured by caliper relative to control; format: functional; conditions: HCT-116, po, read-out: TGI
HCT-116 [6] = experiment: Induction of apoptosis in human HCT-116 cells assessed as early apoptotic cells level at 0.5 uM incubated for 48 hrs by annexin V-FITC/propidium iodide staining based flow cytometry (reference value: 2.02%); format: functional
HCT-116 [7] = experiment: Cell cycle arrest in human HCT-116 cells assessed as accumulation at G1 phase at 0.1 uM incubated for 24 hrs by propidium iodide staining based flow cytometric analysis (Rvb =35.7 %); format: functional
HCT-116 [8] = experiment: Induction of apoptosis in human HCT-116 cells assessed as upregulation of Bax expression at 0.2 to 5 uM measured after 24 hrs by Western blot analysis; format: functional, cell-based; conditions: dose 0.2-5 µM
[9] = Toxicity in BALB/c nude mouse xenografted with human A549 cells assessed as morphological changes in kidney at 150 mg/kg, po bid by H&E staining based light microscopic analysis; format: organism-based; conditions: in vivo
HCT-116 [10] = experiment: Cell cycle arrest in human HCT-116 cells assessed as accumulation at G2 phase at 0.5 uM incubated for 24 hrs by propidium iodide staining based flow cytometric analysis (Rvb =20 %); format: functional
HCT-116 [11] = experiment: Antitumor activity against human HCT-116 cells xenografted in BALB/c nude mouse assessed as inhibition of tumor growth at 60 mg/kg, po BID administered for 21 days measured by caliper relative to control; format: functional; conditions: HCT-116, po, 504 h, time 21 day, read-out: TGI
A549 [12] = experiment: Antiproliferative activity against human A549 cells assessed as inhibition of cell proliferation incubated for 72 hrs by CCK8 assay; format: functional, cell-based; conditions: A549, 72 h
HCT-116 [13] = experiment: Cell cycle arrest in human HCT-116 cells assessed as accumulation at S phase at 0.5 uM incubated for 24 hrs by propidium iodide staining based flow cytometric analysis (Rvb =44.3 %); format: functional
[14] = target: DNA topoisomerase 2-alpha (Homo sapiens) (UniProt P11388); experiment: Inhibition of TOP2 (unknown origin) by ethidium bromide staining based gel electrophoresis
[15] = target: DNA topoisomerase 2-alpha (Homo sapiens) (UniProt P11388); experiment: Inhibition of TOP2 (unknown origin) assessed as formation of short DNA fragments using supercoiled plasmid DNA at 100 uM by ethidium bromide staining based gel
HCT-116 [16] = experiment: Induction of apoptosis in human HCT-116 cells assessed as late apoptotic cells level at 0.1 uM incubated for 48 hrs by annexin V-FITC/propidium iodide staining based flow cytometry (reference value: 1.87%); format: functional
HCT-116 [17] = experiment: Induction of apoptosis in human HCT-116 cells assessed as increase in caspase-9 level at 0.2 to 5 uM measured after 24 hrs by Western blot analysis; format: functional, cell-based; conditions: dose 0.2-5 µM
HCT-116 [18] = experiment: Cell cycle arrest in human HCT-116 cells assessed as accumulation at S phase at 0.1 uM incubated for 24 hrs by propidium iodide staining based flow cytometric analysis (Rvb =44.3 %); format: functional
HCT-116 [19] = experiment: Induction of apoptosis in human HCT-116 cells assessed as late apoptotic cells level at 0.05 uM incubated for 48 hrs by annexin V-FITC/propidium iodide staining based flow cytometry (reference value: 1.87%); format: functional
HCT-116 [20] = experiment: Antiproliferative activity against human HCT-116 cells assessed as inhibition of cell proliferation incubated for 72 hrs by CCK8 assay; format: functional, cell-based; conditions: HCT-116, 72 h
HCT-116 [21] = experiment: Induction of apoptosis in human HCT-116 cells assessed as increase in ratio of Bax to Bcl2 level at 0.2 to 5 uM measured after 24 hrs by Western blot analysis; format: functional, cell-based; conditions: dose 0.2-5 µM
HCT-116 [22] = experiment: Induction of apoptosis in human HCT-116 cells assessed as early apoptotic cells level at 0.1 uM incubated for 48 hrs by annexin V-FITC/propidium iodide staining based flow cytometry (reference value: 2.02%); format: functional
[23] = Half life in mouse liver microsomes; format: ADME, Microsome
[24] = Toxicity in BALB/c nude mouse xenografted with human A549 cells assessed as morphological changes in liver at 150 mg/kg, po bid by H&E staining based light microscopic analysis; format: organism-based; conditions: in vivo
MDA-MB-231 = experiment: Antiproliferative activity against human MDA-MB-231 cells assessed as inhibition of cell proliferation incubated for 72 hrs by CCK8 assay; format: functional, cell-based; conditions: MDA-MB-231, 72 h
HCT-116 [25] = experiment: Cell cycle arrest in human HCT-116 cells assessed as accumulation at G2 phase at 0.1 uM incubated for 24 hrs by propidium iodide staining based flow cytometric analysis (Rvb =20 %); format: functional
Tubulin = experiment: Inhibition of tubulin polymerization (unknown origin); format: protein-complex assay, Homo sapiens
A549 [26] = experiment: Antitumor activity against human A549 cells xenografted in BALB/c nude mouse assessed as inhibition of tumor growth at 150 mg/kg, po BID for 14 days relative to control; format: functional; conditions: 336 h, time 14 day, read-out: TGI

DNA topoisomerase 2-alpha (Homo sapiens), sequence (P11388 whole entry, the tested form may be a part): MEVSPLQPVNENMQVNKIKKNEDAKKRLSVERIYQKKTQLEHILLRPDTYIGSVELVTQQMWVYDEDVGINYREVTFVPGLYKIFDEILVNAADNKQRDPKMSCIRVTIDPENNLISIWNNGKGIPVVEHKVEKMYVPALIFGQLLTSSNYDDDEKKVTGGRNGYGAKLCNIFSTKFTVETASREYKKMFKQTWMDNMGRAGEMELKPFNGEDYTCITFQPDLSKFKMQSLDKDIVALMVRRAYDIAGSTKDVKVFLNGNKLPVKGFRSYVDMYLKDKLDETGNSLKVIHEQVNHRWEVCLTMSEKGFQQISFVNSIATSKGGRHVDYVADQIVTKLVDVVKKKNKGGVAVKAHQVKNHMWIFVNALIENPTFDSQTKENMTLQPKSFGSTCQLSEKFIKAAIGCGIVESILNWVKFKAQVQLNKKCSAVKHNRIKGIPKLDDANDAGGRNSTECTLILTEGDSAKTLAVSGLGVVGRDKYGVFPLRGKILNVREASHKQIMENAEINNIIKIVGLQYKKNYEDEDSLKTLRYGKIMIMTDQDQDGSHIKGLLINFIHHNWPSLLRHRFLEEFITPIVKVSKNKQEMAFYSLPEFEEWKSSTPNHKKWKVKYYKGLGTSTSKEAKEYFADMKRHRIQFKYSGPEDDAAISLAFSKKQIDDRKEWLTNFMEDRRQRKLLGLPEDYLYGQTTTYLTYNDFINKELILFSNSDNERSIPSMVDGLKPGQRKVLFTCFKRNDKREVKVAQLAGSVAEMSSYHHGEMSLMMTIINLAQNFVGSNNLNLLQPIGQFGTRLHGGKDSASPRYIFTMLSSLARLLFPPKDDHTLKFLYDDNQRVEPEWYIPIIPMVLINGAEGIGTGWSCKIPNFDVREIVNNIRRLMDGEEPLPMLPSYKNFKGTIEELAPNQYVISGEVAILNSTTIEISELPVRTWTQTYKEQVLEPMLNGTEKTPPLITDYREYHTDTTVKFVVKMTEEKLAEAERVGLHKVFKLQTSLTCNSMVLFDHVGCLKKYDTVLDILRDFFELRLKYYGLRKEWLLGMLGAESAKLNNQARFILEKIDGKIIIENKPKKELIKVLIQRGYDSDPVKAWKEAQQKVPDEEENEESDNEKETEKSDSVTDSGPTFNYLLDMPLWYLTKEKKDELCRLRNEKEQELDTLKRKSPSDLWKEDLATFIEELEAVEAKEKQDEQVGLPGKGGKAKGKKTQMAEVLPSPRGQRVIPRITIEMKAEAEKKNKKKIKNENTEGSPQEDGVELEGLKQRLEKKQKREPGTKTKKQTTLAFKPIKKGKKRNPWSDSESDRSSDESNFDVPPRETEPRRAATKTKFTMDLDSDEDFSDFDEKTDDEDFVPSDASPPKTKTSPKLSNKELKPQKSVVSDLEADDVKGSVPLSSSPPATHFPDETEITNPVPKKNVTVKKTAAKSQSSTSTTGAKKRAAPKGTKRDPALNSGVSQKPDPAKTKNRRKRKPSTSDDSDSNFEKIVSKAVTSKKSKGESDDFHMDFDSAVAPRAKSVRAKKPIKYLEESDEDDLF

## CN1c2ccccc2C(=O)N2CCc3c([nH]c4ccc(OP(=O)(O)O)cc34)C21 (stereo not drawn)
[1]
  Activity: Non-Toxic
HCT-116 [2]
  Activity: Active
HCT-116 [3]
  Activity: 13.49%
HCT-116 [4]
  TGI: 45%
HCT-116 [5]
  inhibition in vivo at 150 mg/kg: 48%
HCT-116 [6]
  Activity: 44.04%
HCT-116 [7]
  Activity: 6%
HCT-116 [8]
  Activity: Active
[9]
  Activity: Non-Toxic
HCT-116 [10]
  Activity: 65.3%
HCT-116 [11]
  inhibition in vivo at 60 mg/kg: 48%
A549 [12]
  pIC50: 5.59
HCT-116 [13]
  Activity: 30.4%
[14]
  inhibition: Dose-Dependent Effect
[15]
  inhibition: Active
HCT-116 [16]
  Activity: 14.8%
HCT-116 [17]
  Activity: Active
HCT-116 [18]
  Activity: 40.7%
HCT-116 [19]
  Activity: 8.45%
HCT-116 [20]
  pIC50: 7.18
HCT-116 [21]
  Activity: Active
HCT-116 [22]
  Activity: 38.55%
[23]
  half-life: 58.4 min
[24]
  Activity: Non-Toxic
MDA-MB-231
  pIC50: 6.19
HCT-116 [25]
  Activity: 53.4%
Tubulin
  pIC50: 4.50
A549 [26]
  inhibition in vivo at 150 mg/kg: 59%
